Read-outs that look alike come from different tables or passages of the source.
What was measured:
TPO receptor = target: T1, TPO receptor (Homo sapiens, UniProt P40238); experiment: Luciferase assay in TPO-responsive BaF3 cell line; type: cell-based, murine; conditions: at a concentration of 3 uM
T1 construct: expressed in transfected cells; host or cells: murine BaF3 cells (TPO-responsive line)
T1 sequence (P40238 26-635): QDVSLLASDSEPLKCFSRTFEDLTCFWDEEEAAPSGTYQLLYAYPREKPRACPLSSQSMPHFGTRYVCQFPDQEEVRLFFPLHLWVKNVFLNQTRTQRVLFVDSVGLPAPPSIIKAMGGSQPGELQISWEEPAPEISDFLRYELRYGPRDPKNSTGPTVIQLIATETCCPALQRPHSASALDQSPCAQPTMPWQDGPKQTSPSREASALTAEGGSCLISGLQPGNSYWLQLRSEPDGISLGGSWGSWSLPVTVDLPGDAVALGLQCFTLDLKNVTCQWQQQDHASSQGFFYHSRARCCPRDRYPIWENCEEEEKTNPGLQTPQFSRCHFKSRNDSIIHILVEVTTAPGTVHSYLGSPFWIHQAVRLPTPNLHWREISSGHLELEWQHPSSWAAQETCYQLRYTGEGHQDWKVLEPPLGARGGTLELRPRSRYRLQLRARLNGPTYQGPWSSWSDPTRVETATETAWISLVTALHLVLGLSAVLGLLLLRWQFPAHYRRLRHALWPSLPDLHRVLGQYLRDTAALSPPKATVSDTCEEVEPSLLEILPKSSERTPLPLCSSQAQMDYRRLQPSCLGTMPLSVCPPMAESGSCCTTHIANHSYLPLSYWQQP
Description: Compounds of the present invention were tested for potency as mimetics of the TPO receptor in a Luciferase assay such as described in Lamb, et al., Nucleic Acids Research 23: 3283–3289 (1995) and Seidel, et al., Proc. Natl. Acad. Sci., USA 92: 3041–3045 (1995) by substituting a TPO-responsive BaF3 cell line (Vigon et al. Proc. Natl. Acad. Sci. USA 1992, 89, 5640–5644) for the HepG2 cells utilized therein. The murine BaF3 cells express TPO receptors and closely match the pattern of STAT (signal transducers and activators of transcription) activation observed in primary murine and human bone marrow cells in response to TPO.

[1] = system: BAF-3/TPO-responsive human cell lines; experiment: proliferation of BAF-3/TPO-responsive human cell lines (Table 1); type: cell-based

SMILES | activation, % of control (control is the maximal response to TPO) (TPO receptor) | Efficacy/%TPOmax [1] [%TPOmax] | EC50 ([1]; BaF3) [nM] | EC50 [1] [nM]
Cc1ccc(-c2cccc(C=NNC(=S)Nc3cccc(C(=O)O)c3)c2O)cc1C [Example 15.8, 4-(3-carboxyphenyl)-1-[3-(3,4-dimethylphenyl)-2-hydroxybenzylidene]-3-thiosemicarbazide] | about 20 % of control | 90 | 30 | –
O=C(O)c1ccc(NC(=S)NN=Cc2cccc(-c3cccc(C(F)(F)F)c3)c2O)cc1 [Example 15.9, 4-(4-carboxyphenyl)-1-[2-hydroxy-3-(3-trifluoromethylphenyl)benzylidene]-3-thiosemicarbazide] | – | 100 | 20 | –
O=C(O)c1cccc(NC(=S)NN=Cc2cccc(-c3ccc(Cl)cc3)c2O)c1 [Example 15.12, 4-(3-carboxyphenyl)-1-[3-(4-chlorophenyl)-2-hydroxybenzylidene]-3-thiosemicarbazide] | – | 85 | 60 | –
Cc1ccc(-n2nc(C)c(C=NNC(=S)Nc3ccc(C(=O)O)cc3)c2O)cc1 [Example 15.29, 4-(4-carboxyphenyl)-1-[{5-hydroxy-3-methyl-1-(4-methylphenyl)pyrazol-4-yl}methylene]-3-thiosemicarbazide] | – | 100 | 30 | –
Cc1nn(-c2cccc(Cl)c2)c(O)c1C=NNC(=S)Nc1ccc(C(=O)O)cc1 [Example 15.31, 4-(4-carboxyphenyl)-1-[{1-(3-chlorophenyl)-5-hydroxy-3-methylpyrazol-4-yl}methylene]-3-thiosemicarbazide] | – | 100 | 30 | –
Cc1ccc(-n2nc(C)c(C=NNC(=S)Nc3cccc(C(=O)O)c3)c2O)cc1 [Example 15.30, 4-(3-carboxyphenyl)-1-[{5-hydroxy-3-methyl-1-(4-methylphenyl)pyrazol-4-yl}methylene]-3-thiosemicarbazide] | – | 100 | 30 | –
O=C(O)c1cccc(NC(=S)NN=Cc2cccc(-c3cccc(C(F)(F)F)c3)c2O)c1 [Example 15.10, 4-(3-carboxyphenyl)-1-[2-hydroxy-3-(3-trifluoromethylphenyl)benzylidene]-3-3-thiosemicarbazide] | – | 100 | – | 50

From patent publication US7241783B2, “Thrombopoietin mimetics” (SmithKline Beecham Corporation, priority 2000, dated 2007)
